Results on 14 compounds are retold here after patent US6476242B1 (Bristol-Myers Squibb Company, priority 1997, dated 2002).

For orientation: pIC50 means the negative decadic logarithm of the IC50, by convention in mol/L.

One assay concerns Tubulin. Kind of assay: Tubulin Data (Table 1). It counts as biochemical. Conditions: ratio analog/paclitaxel for tubulin data.
In the next assay the test system is 116/VM46. Kind of assay: 116/VM46 activity, resistant line (Table 1). In kind it is cell-based. Conditions: for pIC50: 116/VM46 cells, unit inferred; for R/S ratio: ratio 116/VM46 (resistant) to HCT116 (sensitive).
The subject of another assay is HCT116. Kind of assay: HCT116 activity (Table 1). In kind it is cell-based. The note with it: for pIC50: HCT116 cells, unit inferred; for anal/PT (beside HCT116 and 116/VM46): ratio analog/paclitaxel in HCT116.

pIC50: −log10 of the molar value. Where “and” joins values, the source holds several entries; their conditions need not be identical. Equal entries are not always repeated.

With `COC(=O)OC12COC1CC(O)C1(C)C(=O)C(OC(C)=O)C3=C(C)C(OC(=O)C(O)C(NC(=O)c4ccccc4)c4ccccc4)CC(O)(C(OC(=O)c4cccc(Cl)c4)C21)C3(C)C` (stereo not shown) [MC-134-100, 2-m-chloro-4-MeOCO-PT], the “anal/PT (beside Tubulin Data)” value in the assay with Tubulin amounted to 0.4. The pIC50 in the assay with 116/VM46 is 7.09; in the assay with HCT116, 8.66. Further, the R/S ratio in the assay with 116/VM46 came out at 37.

As for `CC(=O)O[C@H]1C(=O)[C@@]2(C)[C@H]([C@H](OC(=O)c3cccc(Cl)c3)[C@]3(O)C[C@H](OC(=O)[C@H](O)[C@@H](NC(=O)c4ccccc4)c4ccccc4)C(C)=C1C3(C)C)[C@]1(OC(=O)C3CC3)CO[C@@H]1C[C@@H]2O` [MC-134-92, 2-m-chloro-4-cyclopropylCO-PT], the “anal/PT (beside Tubulin Data)” value in the assay on Tubulin is on record as 0.06. In the assay on 116/VM46, the pIC50 was 7.52 and > 7.80; the R/S ratio is 18. Further, the negative-log IC50 (pIC50) with HCT116 is 8.77 and 8.96.

Regarding `CC(=O)O[C@H]1C(=O)[C@@]2(C)[C@H]([C@H](OC(=O)c3cccc(N=[N+]=[N-])c3)[C@]3(O)C[C@H](OC(=O)[C@H](O)[C@@H](NC(=O)c4ccccc4)c4ccccc4)C(C)=C1C3(C)C)[C@]1(OC(=O)C3CC3)CO[C@@H]1C[C@@H]2O` [MC-134-91, 2-m-azido-4-cyclopropylCO-PT], in the assay on Tubulin, the “anal/PT (beside Tubulin Data)” value is on record as 0.08. For the same compound, in the assay on 116/VM46, the pIC50 is 7.55 and > 7.80; the R/S ratio is 10.4.

Turning to `COc1cccc(C(=O)O[C@H]2[C@@H]3[C@]4(OC(=O)C5CC5)CO[C@@H]4C[C@H](O)[C@@]3(C)C(=O)[C@H](OC(C)=O)C3=C(C)[C@@H](OC(=O)[C@H](O)[C@@H](NC(=O)c4ccccc4)c4ccccc4)C[C@]2(O)C3(C)C)c1` [MC-134-45, 2-(m-methoxybz)-4-cyclopropylCO-PT], the “anal/PT (beside Tubulin Data)” value with Tubulin is recorded as 1.3. Further, the figures for the pIC50 in the assay with 116/VM46 and with HCT116 were 7.40 and 8.70, respectively. Besides, the R/S ratio in the assay with 116/VM46 was found to be 20.

Consider `CC(=O)OC1C(=O)C2(C)C(O)CC3OCC3(OC(=O)c3cccc(Cl)c3)C2C(OC(=O)c2cccc(Cl)c2)C2(O)CC(OC(=O)C(O)C(NC(=O)c3ccccc3)c3ccccc3)C(C)=C1C2(C)C` (stereo not shown) [MC-134-277, 2-(m-Cl-benzoyl)-4-(m-Cl-benzoyl)PT], for which, in the assay on Tubulin, the “anal/PT (beside Tubulin Data)” value is reported as 144. Moreover, the negative-log IC50 (pIC50) in the assay with 116/VM46 and in the assay with HCT116 was 5.61 each time.

As for `COc1ccc(OC)c(C(=O)O[C@H]2[C@@H]3[C@]4(OC(=O)C5CC5)CO[C@@H]4C[C@H](O)[C@@]3(C)C(=O)[C@H](OC(C)=O)C3=C(C)[C@@H](OC(=O)[C@H](O)[C@@H](NC(=O)c4ccccc4)c4ccccc4)C[C@]2(O)C3(C)C)c1` [MC-134-250, 2-(2,5-dimethoxybz)-4-cyclopropylCO-PT], in the assay on Tubulin, the “anal/PT (beside Tubulin Data)” value came to 0.5. Further, in the assay on 116/VM46, the negative logarithm of the IC50 (pIC50) is 7.35 and the R/S ratio is on record as 25.06. Also, in the assay on HCT116, the pIC50 is 8.74; the “anal/PT (beside HCT116 and 116/VM46)” value worked out at 0.78.

`CSC(=S)O[C@@]12CO[C@@H]1C[C@H](O)[C@@]1(C)C(=O)[C@H](OC(C)=O)C3=C(C)[C@@H](OC(=O)[C@H](O)[C@@H](NC(=O)c4ccccc4)c4ccccc4)C[C@@](O)([C@@H](OC(=O)c4cccc(N=[N+]=[N-])c4)[C@H]21)C3(C)C` [MC-134-239, 2-(m-azidobenzoyl-4-xanthyl)PT]: in the assay on Tubulin, the “anal/PT (beside Tubulin Data)” value stood at 42. In the assay on 116/VM46, the negative-log IC50 (pIC50) was 6.87 and the R/S ratio came out at 8.03. Besides, in the assay on HCT116, the negative-log IC50 (pIC50) was 7.77; the “anal/PT (beside HCT116 and 116/VM46)” value was determined as 11.02.

Regarding `COC(=O)O[C@@]12CO[C@@H]1C[C@H](O)[C@@]1(C)C(=O)[C@H](OC(C)=O)C3=C(C)[C@@H](OC(=O)[C@H](O)[C@@H](NC(=O)c4ccccc4)c4ccccc4)C[C@@](O)([C@@H](OC(=O)c4cccc(C)c4)[C@H]21)C3(C)C` [MC-134-68, 2-(m-methylbenzoyl)-4-MeOCO-PT], the “anal/PT (beside Tubulin Data)” value in the assay on Tubulin is 0.8. Further, in the assay on 116/VM46, the pIC50 is 7.36 and the R/S ratio was 21. The compound also gave a pIC50 in the assay on HCT116 of 8.68.

With `CC(=O)OC1C(=O)C2(C)C(O)CC3OCC3(OC(=O)C3CC3)C2C(OC(=O)c2ccc(F)cc2F)C2(O)CC(OC(=O)C(O)C(NC(=O)c3ccccc3)c3ccccc3)C(C)=C1C2(C)C` (stereo not shown) [MC-134-248, 2-(2,4-difluorobz)-4-cyclopropylCO-PT], the “anal/PT (beside Tubulin Data)” value in the assay on Tubulin turned out to be 0.2. In the assay on 116/VM46, the negative logarithm of the IC50 (pIC50) is 8.09 and the R/S ratio is on record as 3.86. In addition, in the assay on HCT116, the pIC50 is 8.68; the “anal/PT (beside HCT116 and 116/VM46)” value amounted to 1.03.

Regarding `COc1cccc(C(=O)O[C@H]2[C@@H]3[C@]4(OC(=S)SC)CO[C@@H]4C[C@H](O)[C@@]3(C)C(=O)[C@H](OC(C)=O)C3=C(C)[C@@H](OC(=O)[C@H](O)[C@@H](NC(=O)c4ccccc4)c4ccccc4)C[C@]2(O)C3(C)C)c1` [MC-134-229, 2-(m-methoxybenzoyl-4-xanthyl)PT], in the assay on Tubulin, the “anal/PT (beside Tubulin Data)” value is on record as 8.9. In the assay with 116/VM46, the negative logarithm of the IC50 (pIC50) was 7.27 and the R/S ratio was found to be 11.32. Also, in the assay with HCT116, the pIC50 was 8.33; the “anal/PT (beside HCT116 and 116/VM46)” value was 3.08.

In the case of `CSC(=S)O[C@@]12CO[C@@H]1C[C@H](O)[C@@]1(C)C(=O)[C@H](OC(C)=O)C3=C(C)[C@@H](OC(=O)[C@H](O)[C@@H](NC(=O)c4ccccc4)c4ccccc4)C[C@@](O)([C@@H](OC(=O)c4cccc(Cl)c4)[C@H]21)C3(C)C` [MC-134-238, 2-(m-chlorobenzoyl-4-xanthyl)PT], the “anal/PT (beside Tubulin Data)” value in the assay with Tubulin is recorded as 3.5. Moreover, in the assay on 116/VM46, the pIC50 was 7.23 and the R/S ratio is 10.34. Besides, in the assay on HCT116, the pIC50 was 8.24; the “anal/PT (beside HCT116 and 116/VM46)” value is on record as 3.72.

On to `COC(=O)O[C@@]12CO[C@@H]1C[C@H](O)[C@@]1(C)C(=O)[C@H](OC(C)=O)C3=C(C)[C@@H](OC(=O)[C@H](O)[C@@H](NC(=O)c4ccccc4)c4ccccc4)C[C@@](O)([C@@H](OC(=O)c4cccc(OC)c4)[C@H]21)C3(C)C` [MC-134-61, 2-(m-methoxybenzoyl)-4-MeOCO-PT], for which the “anal/PT (beside Tubulin Data)” value in the assay with Tubulin is 0.9. Besides, the R/S ratio in the assay with 116/VM46 is given as 129. Moreover, the pIC50 in the assay on HCT116 is 8.17 and 8.36.

For the compound `CC(=O)O[C@H]1C(=O)[C@@]2(C)[C@H]([C@H](OC(=O)c3ccccc3)[C@]3(O)C[C@H](OC(=O)[C@H](O)[C@@H](NC(=O)c4ccccc4)c4ccccc4)C(C)=C1C3(C)C)[C@]1(OC(C)=O)CO[C@@H]1C[C@@H]2O` [paclitaxel (PT), paclitaxel, reference compound], the “anal/PT (beside Tubulin Data)” value in the assay on Tubulin is 1. The negative logarithm of the IC50 (pIC50) in the assay with 116/VM46 was 6.69; with HCT116, 8.70.

Take `CC(=O)OC1C(=O)C2(C)C(O)CC3OCC3(OC(=O)C3CC3)C2C(OC(=O)c2ccc(Cl)cc2Cl)C2(O)CC(OC(=O)C(O)C(NC(=O)c3ccccc3)c3ccccc3)C(C)=C1C2(C)C` (stereo not shown) [MC-134-247, 2-(2,4-dichlorobz)-4-cyclopropylCO-PT]: the “anal/PT (beside Tubulin Data)” value with Tubulin was 0.7. Besides, in the assay on 116/VM46, the pIC50 was 7.12 and the R/S ratio is on record as 30.64. In addition, in the assay with HCT116, the pIC50 is 8.60; the “anal/PT (beside HCT116 and 116/VM46)” value stood at 1.09.
